Results: patent US8067372B2, “Modulation of angiogenesis by A-beta peptide fragments” (Alzheimer's Institute of America, Inc., priority 2005, dated 2011)
Entries after “also recorded” stand apart in the source; their conditions may differ.

Experiments:
[1] = system: Human Umbilical Vein Endothelial Cells (HUVEC); assay: Capillary tube formation assay (HUVEC on Matrigel); type: cell-based; settings: for Total length of capillary tubes (percentage of control): ANOVA main effect: 0, 1, 5 and 10 μM doses
Protocol: All in-vitro experiments were performed using primary Human Umbilical Vein Endothelial Cells (HUVEC) at passages 3-4, purchased from American Tissue Type Culture Collection (ATCC, VA). Cells were cultured in F12K Medium (ATCC, VA) supplemented with 10% fetal bovine serum (Invitrogen, CA), 0.1 mg/ml Heparin and 0.03 mg/ml endothelial cell growth supplement (Sigma-Aldrich, MO). At all times, cells were maintained in a sterile cell culture incubator at 37° C. and 5% CO2.
HUVEC (7.5×10^4 cells/ml) in 500 μl of medium were seeded in 24-well plates, on top of a layer of Matrigel basement membrane matrix (Invitrogen, CA) in F12K medium (ATCC, VA) containing 4% serum (Invitrogen, CA), 0.1 mg/ml Heparin and 0.03 mg/ml endothelial cell growth supplement (Sigma-Aldrich, MO). Cells were incubated with peptides (or control conditions) for 24 hours. Control wells received the same volume of vehicle (DMSO) used to dilute the peptides. Network formation experiments were performed in triplicate, and at least 2 randomly chosen fields were photographed for each well using a 4× objective. Capillary length was measured using Image Pro Plus software (Media Cybernetic, Inc., MD).

[2] = system: VEGF-induced angiogenesis; assay: Rat corneal micropocket assay; type: in vivo; settings: 0.5, 2.5 and 5.0 μg with 200 ng VEGF; 7 days
Protocol: The vascular growth response was measured seven days post implantation. The lengths and widths of vessel outgrowths were measured and the angiogenic index (AI) calculated using the formula L×W=AI. Rats were perfused with colloidal carbon, eyes enucleated and fixed in 10% buffered formalin. Corneas were removed under an Olympus dissecting microscope and mounted on glass slides with Crystal Mount media.

[3] = tested at 1, 5 and 10 μM, 24 hours

Substance | Total length of capillary tubes (percentage of control): ANOVA main effect [1] | anti-angiogenic activity in capillary network formation [1, 3] | further results
DAEFRHDSGYEVAAQALVFFAEDVGSNK (listed as Homo sapiens) [Aβ1-28 Mutant 2] | no main effect | – | –
DAEFRHDSGYEVGGQGLVFFAEDVGSNK (listed as Homo sapiens) [Aβ1-28 Mutant 1] | no main effect | – | –
GSNKGAIIGLM (listed as Homo sapiens) [Aβ25-35] | – | not active | anti-angiogenic activity in capillary network formation ([1]; 5 μM): slightly active; anti-angiogenic activity in capillary network formation ([1]; 10 μM): not at 10 μM
HHHQKLVFF (listed as Homo sapiens) [Fragment 1] | significant main effect | – | inhibition of VEGF-induced angiogenesis in vivo (Angiogenic Index) [2]: appears antiangiogenic in vivo; Total length of capillary tubes (percentage of control): post hoc effect ([1]; 1, 5 and 10 μM, P<0.005): significant effects
LMVGGVVIA (listed as Homo sapiens) [Aβ34-42] | – | pro-angiogenic activity; also recorded: did not display any anti-angiogenic activity; also recorded: promoted angiogenesis in a dose dependent manner; also recorded: not active | –
LVFFAEDVGSNK (listed as Homo sapiens) [Aβ17-28] | – | did not display any anti-angiogenic activity; also recorded: not active | –
YEVHHQK (listed as Homo sapiens) [Aβ10-16] | – | did not display any anti-angiogenic activity; also recorded: inactive | –
YEVHHQKLVFFAEDVGSNKGAIIGLM (listed as Homo sapiens) [Aβ10-35] | – | most active | Total length of capillary tubes (percentage of control): post hoc difference from control ([1]; 5 and 10 μM doses, P<0.005, 24 hours, n≧8): significant differences
heparin [reference compound] | – | – | reversal of inhibition of capillary tube formation induced by Aβ1-42 ([1]; heparin 500 μg/ml and 1 mg/ml added with Aβ1-42, P<0.001 vs Aβ alone): effectively reverse; also recorded: effectively reversed inhibition; inhibition of angiogenesis (capillary tube formation) by heparin alone ([1]; heparin alone, 0.5 or 1 mg/ml): slight inhibition
